Measured values: US9434724B2, “Quinuclidines for modulating alpha 7 activity” (priority 2014, dated 2016)

Key:
[1] = Metabolic stability assay in rat liver microsomes (RLM); format: in vitro ADME; conditions: 1 μM
Procedure, shortened: (§1)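 In Protocol 1, compound was 1 μM final with NADPH at 37 °C, sampled at 0–45 min. In Protocol 2, 1.5 μM compound with 0.75 mg/mL microsomes (pre-NADPH mix) in 0.1 M potassium phosphate, 1 mM EDTA, pH 7.4 was pre-incubated 10 min, then NADPH started the reaction. Both: LC-MS/MS % remaining versus time 0, half-life from single-phase exponential fit.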

Human plasma stability = format: in vitro ADME; conditions: plasma; for % Remaining @ 2 h: 5 μM
Procedure, shortened: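 Protocol 1: 1 μM compound in pH 7.4 sodium-heparin human plasma at 37° C, sampled 0–120 min. Protocol 2: 5 μM in plasma at pH 7.4–8.0, 37° C, duplicates, sampled 0–120 min. Both: LC-MS/MS percent remaining versus t0; half-life from single-phase exponential decay.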

[2] = Metabolic stability assay in human liver microsomes (HLM); format: in vitro ADME; conditions: 1 μM
Procedure, shortened: as §1

[3] = biological target: rat brain nicotinic receptor (α7 NAChR) (Rattus norvegicus (Rat), UniProt Q05941); format: binding
Sequence of rat brain nicotinic receptor (α7 NAChR) (Q05941 23-502 limits assumed): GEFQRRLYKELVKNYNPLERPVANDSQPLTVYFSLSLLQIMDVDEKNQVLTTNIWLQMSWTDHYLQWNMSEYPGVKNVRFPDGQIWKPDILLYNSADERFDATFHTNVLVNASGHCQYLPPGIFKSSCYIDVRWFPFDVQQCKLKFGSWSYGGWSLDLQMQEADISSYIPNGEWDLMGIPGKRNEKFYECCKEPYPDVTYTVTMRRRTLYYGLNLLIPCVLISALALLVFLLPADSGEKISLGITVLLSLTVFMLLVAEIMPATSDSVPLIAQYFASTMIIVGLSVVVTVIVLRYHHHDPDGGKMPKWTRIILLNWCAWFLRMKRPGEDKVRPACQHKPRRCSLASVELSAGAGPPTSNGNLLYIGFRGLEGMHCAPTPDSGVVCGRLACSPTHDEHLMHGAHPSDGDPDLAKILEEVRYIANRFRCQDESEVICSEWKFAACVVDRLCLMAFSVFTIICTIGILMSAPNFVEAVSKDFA

Compound: COc1c(OCC(F)(F)F)ccc2[nH]cc(C(=O)OCC34CCN(CC3)CC4)c12 [Compound 88, quinuclidin-4-ylmethyl 4-methoxy-5-(2,2,2-trifluoroethoxy)-1H-indole-3-carboxylate]
- RLM ([1]; rat, microsomes): 25.96 mL/min/kg
- T1/2 (Human plasma stability; human): ∞
- % Remaining @ 2 h (Human plasma stability; human, 2 h): 110.47%
- HLM ([2]; human, microsomes): 3.31 mL/min/kg

Compound: O=C(OCC12CCN(CC1)CC2)c1c[nH]c2cc(O)cc(Cl)c12 [Compound 46, quinuclidin-4-ylmethyl 4-chloro-6-hydroxy-1H-indole-3-carboxylate]
- RLM ([1]; rat, microsomes): 32.4827 mL/min/kg
- IC50 [3]: 33.4 nM
- Ki [3]: 28.6 nM
- % Remaining @ 2 h (Human plasma stability; human, 2 h): 91.9%
- HLM ([2]; human, microsomes): 7.385 mL/min/kg

Compound: Cc1cc(Cl)c2c(C(=O)OCC34CCN(CC3)CC4)c[nH]c2c1.Cl [Compound 65, quinuclidin-4-ylmethyl 4-chloro-6-methyl-1H-indole-3-carboxylate hydrochloride]
- RLM ([1]; Protocol No. 1, rat liver microsomes): 286.666 mL/min/kg
- IC50 [3]: 63.6 nM
- Ki [3]: 54.6 nM
- % Remaining @ 2 h (Human plasma stability; Protocol No. 2, 37° C.): 72.66%
- HLM ([2]; Protocol No. 1, human liver microsomes): 2.253 mL/min/kg
